Consider one compound from publication PMC6934184, “Selective DNA-PKcs inhibition extends the therapeutic index of localized radiotherapy and chemotherapy” (The Journal of Clinical Investigation, 2019).

The target in the test is T1, ABL1 E255K (Homo sapiens, UniProt P00519, E255K).
T1 construct: purchased Thermo Fisher Scientific (Life Technologies) SelectScreen
Description: SelectScreen Z'LYTE. The format is biochemical. The procedure, abridged: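 NU5455 was profiled across the SelectScreen Broad panel of kinase activity and binding assays. Z'LYTE reactions such as CSF1R ran at apparent Km ATP, while the Adapta CAMK1 assay used ATP listed as 10. Values are given as percent.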

SMILES strings stand for the structures.

T1 sequence (P00519 whole entry E255K): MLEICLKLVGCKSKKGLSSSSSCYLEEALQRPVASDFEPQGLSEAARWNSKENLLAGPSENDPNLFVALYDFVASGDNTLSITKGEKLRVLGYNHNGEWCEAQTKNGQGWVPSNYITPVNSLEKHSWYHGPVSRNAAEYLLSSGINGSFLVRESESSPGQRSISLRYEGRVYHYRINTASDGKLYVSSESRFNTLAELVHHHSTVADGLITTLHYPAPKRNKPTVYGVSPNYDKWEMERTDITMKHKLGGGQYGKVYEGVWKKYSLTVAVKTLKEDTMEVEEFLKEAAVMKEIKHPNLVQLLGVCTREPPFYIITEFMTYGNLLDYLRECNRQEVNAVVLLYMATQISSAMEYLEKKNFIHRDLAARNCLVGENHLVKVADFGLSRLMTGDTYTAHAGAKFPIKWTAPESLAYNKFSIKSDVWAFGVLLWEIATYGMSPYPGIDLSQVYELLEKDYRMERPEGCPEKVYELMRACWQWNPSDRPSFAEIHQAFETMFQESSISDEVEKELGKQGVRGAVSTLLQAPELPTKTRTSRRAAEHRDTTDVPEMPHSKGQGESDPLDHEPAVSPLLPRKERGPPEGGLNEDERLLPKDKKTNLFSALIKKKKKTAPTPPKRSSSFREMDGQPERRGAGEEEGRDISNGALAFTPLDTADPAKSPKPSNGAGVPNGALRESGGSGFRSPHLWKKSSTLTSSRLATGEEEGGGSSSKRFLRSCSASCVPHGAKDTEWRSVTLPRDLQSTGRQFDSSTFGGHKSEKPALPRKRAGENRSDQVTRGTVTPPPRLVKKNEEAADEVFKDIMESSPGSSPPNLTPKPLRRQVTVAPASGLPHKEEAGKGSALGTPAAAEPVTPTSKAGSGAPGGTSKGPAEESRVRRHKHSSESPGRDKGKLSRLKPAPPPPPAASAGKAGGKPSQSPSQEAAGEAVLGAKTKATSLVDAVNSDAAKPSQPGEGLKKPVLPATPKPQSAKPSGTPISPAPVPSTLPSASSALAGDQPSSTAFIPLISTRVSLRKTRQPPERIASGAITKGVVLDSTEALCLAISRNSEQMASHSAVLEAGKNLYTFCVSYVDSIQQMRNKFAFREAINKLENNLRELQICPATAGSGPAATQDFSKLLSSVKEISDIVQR

Broadly, the inhibition is the relative decrease from the control value, in per cent. As to `CN(C(=O)CN1CCOCC1)c1ccc2sc3c(-c4cccc5c(=O)cc(N6CC7CCC(C6)O7)oc45)cccc3c2c1` [NU5455], the inhibition at 1 µM was -6.6%.
